Data as given in ChEMBL document CHEMBL1201862, “PubChem BioAssay data set” (2004).
Calls of active or inactive are those of the source.

Legend:
[1] = target: T1, Low molecular weight phosphotyrosine protein phosphatase (Homo sapiens, UniProt P24666); assay type: functional; settings: read-out: IC50_Mean;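 further: Dose-response confirmation assay measuring inhibition of LMPTP enzyme activity by fluorescence intensity read-out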
T1 sequence (P24666 whole entry): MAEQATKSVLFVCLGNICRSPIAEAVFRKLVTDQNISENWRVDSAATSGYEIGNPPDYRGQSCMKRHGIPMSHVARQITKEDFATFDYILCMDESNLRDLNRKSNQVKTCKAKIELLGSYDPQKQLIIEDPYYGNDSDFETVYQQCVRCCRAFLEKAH

INS1 = test: INS-1E survival protection against cytokine death – cell-based, luminescence, retest, dose response (AID 449756); assay type: functional; settings: Rattus norvegicus;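 further: cell death triggered by IL-1 beta plus TNF-alpha plus IFN-gamma mixture; protective hits raise ATP signal compared with cytokine alone wells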
[2] = reduction of Shn3 3'UTR-driven luciferase in osteoblasts – cell-based, Clone20 osteoblasts, firefly luciferase, cherry-picked, dose response (AID 624132); assay type: functional;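 further: firefly luciferase luminescence from reporter carrying the Shn3 3'UTR in osteoblasts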
[3] = loss of viability in HepG2 cells – cell-based, CellTiter-Glo, cherry-picked, cytotoxicity control for Shn3 inhibitor project, dose response (AID 624134); assay type: functional
[4] = non-specific 3'UTR reporter inhibition in Clone20-Shn3RL – cell-based, Renilla luciferase, cherry-picked, counter-screen for Shn3 inhibitor project, dose response (AID 624133); assay type: functional
Galanin receptor type 3 = target: T2, Galanin receptor type 3 (Homo sapiens, UniProt O60755); test: Fluorescence-based cell-based primary high throughput dose response assay to identify antagonists of the Galanin Receptor 3 (GalR3).; assay type: functional
T2 sequence (O60755 whole entry): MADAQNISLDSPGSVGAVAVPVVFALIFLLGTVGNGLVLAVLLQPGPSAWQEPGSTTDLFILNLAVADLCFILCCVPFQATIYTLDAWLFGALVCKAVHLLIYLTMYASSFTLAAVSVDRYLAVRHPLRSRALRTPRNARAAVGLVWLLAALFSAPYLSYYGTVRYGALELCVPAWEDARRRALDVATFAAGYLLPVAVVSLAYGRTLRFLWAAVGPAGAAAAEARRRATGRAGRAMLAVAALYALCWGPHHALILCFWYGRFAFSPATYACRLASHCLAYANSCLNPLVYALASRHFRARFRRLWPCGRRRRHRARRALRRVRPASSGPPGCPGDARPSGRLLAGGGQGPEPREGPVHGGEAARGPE

cells = assay type: functional, cell-based; settings: HEK-CNG
[5] = target: T3, Long-chain-fatty-acid--AMP ligase FadD28 (Mycobacterium tuberculosis, UniProt P9WQ59); test: Fluorescence polarization aasay to screen for inhibitors that compete for the binding of FadD28 to a bisubstrate Measured in Biochemical System Using Plate Reader - 2147-01_Inhibitor_Dose_CherryPick_Activity.; assay type: functional, Mycobacterium tuberculosis H37Rv
T3 sequence (P9WQ59 whole entry): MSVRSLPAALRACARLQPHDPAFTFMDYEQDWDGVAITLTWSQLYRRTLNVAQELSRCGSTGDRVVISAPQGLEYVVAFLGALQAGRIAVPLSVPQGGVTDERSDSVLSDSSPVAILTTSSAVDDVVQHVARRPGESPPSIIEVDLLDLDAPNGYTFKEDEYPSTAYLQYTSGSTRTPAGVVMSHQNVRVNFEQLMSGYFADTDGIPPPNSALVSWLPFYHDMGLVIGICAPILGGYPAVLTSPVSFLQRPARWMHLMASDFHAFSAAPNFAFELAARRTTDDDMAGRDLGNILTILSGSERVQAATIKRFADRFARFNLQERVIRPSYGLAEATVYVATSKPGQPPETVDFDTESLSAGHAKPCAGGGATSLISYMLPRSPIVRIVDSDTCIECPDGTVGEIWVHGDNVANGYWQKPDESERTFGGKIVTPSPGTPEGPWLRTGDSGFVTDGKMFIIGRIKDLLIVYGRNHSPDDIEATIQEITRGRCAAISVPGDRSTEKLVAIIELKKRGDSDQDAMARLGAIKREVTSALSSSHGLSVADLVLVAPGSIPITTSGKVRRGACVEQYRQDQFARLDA

Cysteine protease ATG4B = target: T4, Cysteine protease ATG4B (Homo sapiens, UniProt Q9Y4P1); assay type: functional;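 further: Fluorescence-based dose-response confirmation assay measuring inhibition of ATG4B activity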
T4 sequence (Q9Y4P1 whole entry): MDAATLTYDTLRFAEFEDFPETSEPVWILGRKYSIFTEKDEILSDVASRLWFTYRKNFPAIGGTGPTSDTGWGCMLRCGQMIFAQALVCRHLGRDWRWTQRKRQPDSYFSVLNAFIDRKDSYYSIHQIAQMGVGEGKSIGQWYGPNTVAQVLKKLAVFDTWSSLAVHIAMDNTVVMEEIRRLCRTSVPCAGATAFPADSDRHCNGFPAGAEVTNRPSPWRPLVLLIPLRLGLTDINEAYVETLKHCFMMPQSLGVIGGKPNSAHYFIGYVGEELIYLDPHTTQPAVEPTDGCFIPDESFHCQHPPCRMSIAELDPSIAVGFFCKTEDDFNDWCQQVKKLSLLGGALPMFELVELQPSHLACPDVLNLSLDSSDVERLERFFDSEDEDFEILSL

Phospholipase A2 = Phospholipase A2 (Homo sapiens, UniProt P04054); assay type: functional;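 further: confirmatory dose-response counterscreen on phospholipase A2, testing hits that came from an ultra-high-throughput screen for ATG4B inhibitors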
Sequence of Phospholipase A2 (P04054 whole entry): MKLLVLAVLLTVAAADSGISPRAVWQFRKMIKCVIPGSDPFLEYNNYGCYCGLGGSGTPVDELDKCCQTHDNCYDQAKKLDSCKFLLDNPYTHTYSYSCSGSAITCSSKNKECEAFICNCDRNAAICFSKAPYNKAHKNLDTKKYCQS

[6] = target: T5, Mitochondrial peptide methionine sulfoxide reductase (Bos taurus, UniProt P54149); test: Absorbance-based biochemical high throughput dose response assay for activators of Methionine sulfoxide reductase A (MsrA).; assay type: functional
T5 sequence (P54149 whole entry): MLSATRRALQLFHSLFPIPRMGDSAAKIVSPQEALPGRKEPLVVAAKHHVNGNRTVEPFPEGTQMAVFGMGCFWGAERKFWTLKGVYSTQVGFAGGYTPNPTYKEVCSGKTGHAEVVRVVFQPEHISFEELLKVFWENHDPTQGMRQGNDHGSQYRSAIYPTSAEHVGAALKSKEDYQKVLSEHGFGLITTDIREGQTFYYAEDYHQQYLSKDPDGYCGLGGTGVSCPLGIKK

Fatty acid synthase [7] = target: T6, Fatty acid synthase (Homo sapiens, UniProt P49327); test: inhibition of human FAS-TE enzyme activity – biochemical, endpoint fluorescence intensity, uHTS hits, dose response (AID 624327); assay type: functional;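 further: fluorescence from hydrolysis of an O-methyl fluorescein acyl ester substrate by the enzyme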
T6 sequence (P49327 whole entry): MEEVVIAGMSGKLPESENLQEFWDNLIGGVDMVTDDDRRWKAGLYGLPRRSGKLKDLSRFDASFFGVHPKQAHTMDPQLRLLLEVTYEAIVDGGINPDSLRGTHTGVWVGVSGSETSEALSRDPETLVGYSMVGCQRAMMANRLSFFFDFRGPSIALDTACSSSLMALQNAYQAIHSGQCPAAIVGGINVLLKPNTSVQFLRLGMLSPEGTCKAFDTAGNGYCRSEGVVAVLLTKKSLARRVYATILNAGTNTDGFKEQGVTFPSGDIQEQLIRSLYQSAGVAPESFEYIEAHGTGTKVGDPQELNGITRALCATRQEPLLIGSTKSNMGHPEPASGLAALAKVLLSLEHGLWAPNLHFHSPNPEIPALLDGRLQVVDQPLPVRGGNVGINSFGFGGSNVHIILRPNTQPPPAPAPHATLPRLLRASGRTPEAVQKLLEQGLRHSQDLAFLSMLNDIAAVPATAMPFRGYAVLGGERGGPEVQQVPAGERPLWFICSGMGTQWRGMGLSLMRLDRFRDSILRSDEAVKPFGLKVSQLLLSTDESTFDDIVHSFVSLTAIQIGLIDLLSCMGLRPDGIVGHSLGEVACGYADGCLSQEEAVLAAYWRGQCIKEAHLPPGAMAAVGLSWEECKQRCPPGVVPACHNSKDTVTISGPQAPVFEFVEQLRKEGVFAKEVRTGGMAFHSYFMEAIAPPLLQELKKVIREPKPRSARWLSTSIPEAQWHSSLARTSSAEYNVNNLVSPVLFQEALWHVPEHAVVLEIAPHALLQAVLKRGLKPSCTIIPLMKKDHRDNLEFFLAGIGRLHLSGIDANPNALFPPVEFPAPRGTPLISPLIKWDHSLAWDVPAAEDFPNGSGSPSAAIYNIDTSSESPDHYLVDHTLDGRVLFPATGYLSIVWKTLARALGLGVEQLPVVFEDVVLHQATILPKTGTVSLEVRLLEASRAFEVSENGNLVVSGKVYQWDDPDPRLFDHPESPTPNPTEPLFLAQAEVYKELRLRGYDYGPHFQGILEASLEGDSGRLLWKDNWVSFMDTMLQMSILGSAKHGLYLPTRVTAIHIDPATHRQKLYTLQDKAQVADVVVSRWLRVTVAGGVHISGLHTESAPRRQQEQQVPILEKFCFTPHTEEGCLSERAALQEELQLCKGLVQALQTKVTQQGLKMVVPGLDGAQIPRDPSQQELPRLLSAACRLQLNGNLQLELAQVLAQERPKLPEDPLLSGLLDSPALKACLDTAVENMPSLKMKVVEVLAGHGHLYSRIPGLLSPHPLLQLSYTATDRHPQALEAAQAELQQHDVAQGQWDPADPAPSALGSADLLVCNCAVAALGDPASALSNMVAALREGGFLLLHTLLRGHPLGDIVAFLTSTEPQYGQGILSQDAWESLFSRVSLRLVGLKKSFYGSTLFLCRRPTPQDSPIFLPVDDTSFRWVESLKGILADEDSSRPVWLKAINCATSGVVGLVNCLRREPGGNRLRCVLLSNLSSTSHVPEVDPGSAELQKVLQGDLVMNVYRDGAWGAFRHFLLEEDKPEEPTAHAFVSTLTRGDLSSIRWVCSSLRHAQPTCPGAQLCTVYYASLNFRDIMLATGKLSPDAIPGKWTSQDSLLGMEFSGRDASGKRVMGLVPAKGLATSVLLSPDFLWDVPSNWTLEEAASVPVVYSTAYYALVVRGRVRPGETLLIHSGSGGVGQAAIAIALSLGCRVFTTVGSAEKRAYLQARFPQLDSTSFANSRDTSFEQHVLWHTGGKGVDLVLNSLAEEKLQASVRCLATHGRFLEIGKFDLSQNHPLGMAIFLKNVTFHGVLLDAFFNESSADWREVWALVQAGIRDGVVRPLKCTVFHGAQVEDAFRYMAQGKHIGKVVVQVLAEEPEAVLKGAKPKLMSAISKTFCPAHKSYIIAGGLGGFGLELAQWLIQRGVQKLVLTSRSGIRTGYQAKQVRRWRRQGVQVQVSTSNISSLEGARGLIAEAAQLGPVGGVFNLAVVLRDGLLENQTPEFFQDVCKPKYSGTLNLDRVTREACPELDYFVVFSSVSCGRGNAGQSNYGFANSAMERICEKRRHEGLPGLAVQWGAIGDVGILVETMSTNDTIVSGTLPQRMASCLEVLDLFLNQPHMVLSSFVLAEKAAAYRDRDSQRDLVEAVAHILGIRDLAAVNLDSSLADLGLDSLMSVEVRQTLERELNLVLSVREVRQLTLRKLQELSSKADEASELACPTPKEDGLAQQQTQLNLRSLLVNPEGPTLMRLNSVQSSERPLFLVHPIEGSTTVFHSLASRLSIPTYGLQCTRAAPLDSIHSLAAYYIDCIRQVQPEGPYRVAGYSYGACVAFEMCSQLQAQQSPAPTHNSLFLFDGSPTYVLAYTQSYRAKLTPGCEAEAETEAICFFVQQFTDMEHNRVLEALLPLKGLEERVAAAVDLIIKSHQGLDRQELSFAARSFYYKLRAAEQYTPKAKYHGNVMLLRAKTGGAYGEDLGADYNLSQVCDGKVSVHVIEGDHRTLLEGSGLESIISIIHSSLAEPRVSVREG

Fatty acid synthase [8] = target: T6, Fatty acid synthase; test: inhibition of human FAS-TE enzyme activity – biochemical, kinetic fluorescence intensity, dose response (AID 624326); assay type: functional;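 further: rate of fluorescence rise from hydrolysis of a fluorogenic O-methyl fluorescein ester substrate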
[9] = target: T7, Tyrosyl-DNA phosphodiesterase 2 (Homo sapiens, UniProt O95551); test: potency against TDP2 phosphodiesterase activity – biochemical, epi absorbance, IC50, dose response (AID 743297)
T7 sequence (O95551 whole entry): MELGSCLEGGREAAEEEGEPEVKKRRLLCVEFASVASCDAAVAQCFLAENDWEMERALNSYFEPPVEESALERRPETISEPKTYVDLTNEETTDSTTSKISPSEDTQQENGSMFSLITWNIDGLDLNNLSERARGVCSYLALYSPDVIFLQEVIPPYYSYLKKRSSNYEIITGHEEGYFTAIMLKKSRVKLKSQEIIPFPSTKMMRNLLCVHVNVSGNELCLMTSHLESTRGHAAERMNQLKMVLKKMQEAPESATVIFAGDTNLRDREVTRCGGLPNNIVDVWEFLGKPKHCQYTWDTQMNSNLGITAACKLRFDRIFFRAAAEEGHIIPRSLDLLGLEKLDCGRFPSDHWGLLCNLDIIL

[10] = HIV-1 Vif–A3G interaction blockers – biochemical, TR-FRET, GST-Vif 1-94, biotin-A3G peptide, dose response retest, primary screen (AID 1117319); assay type: functional;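 further: TR-FRET signal of purified GST-Vif binding a biotinylated A3G peptide; inhibitors lower the FRET signal by blocking Vif and A3G binding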

Cc1cc(N2CCN(c3nc(-c4ccccc4)cs3)CC2)c2ccccc2n1
IC50 [1]: 9.27 µM (active)

NC(=O)c1ccc(N2CCN(S(=O)(=O)c3cccs3)CC2)c([N+](=O)[O-])c1
AC50 (INS1): 3.67 µM (active)
AC50 [2]: 0.305 µM (active)
AC50 [3]: 2.54 µM (active)
AC50 [4]: 6.21 µM (active)
IC50 (Galanin receptor type 3): 1.09 µM (active)
EC50 (cells): > 29.9 µM (inactive)

CCn1cc(C(=O)O)c(=O)c2cc(F)c(N3CCN(C(=S)Nc4ccc(OC)cc4)CC3)cc21
IC50 [1]: 73.8 µM (inactive)

CC(C)N(C)S(=O)(=O)c1ccc(NC(=O)CSC(=S)N2CCCC2)cc1
AC50 [5]: > 100 µM (inactive)

CC(C)COC(=O)c1ccc(N2C(=O)c3ccccc3C2=O)cc1
IC50 (Cysteine protease ATG4B): 16.2 µM (active)
IC50 (Phospholipase A2): 66.5 µM (inactive)
EC50 [6]: > 104 µM (inactive)

O=C(CCCN1C(=O)C(=Cc2ccc3c(c2)OCO3)SC1=S)Nc1ccc(C(=O)O)c(O)c1
IC50 [1]: 80 µM (inactive)

O=C(COC(=O)c1cc([N+](=O)[O-])ccc1NCCO)NCc1cccs1
IC50 (Fatty acid synthase [7]): 3.84 µM (active)
IC50 (Fatty acid synthase [8]): 1.68 µM (active)

Clc1ccccc1N=Nc1ccccn1
IC50 [9]: > 128 µM (inactive)
IC50 [10]: > 100 µM (active)

CC1(C)Cc2c(sc(NC(=S)NC(=O)c3ccccc3)c2C(=O)O)CO1
IC50 (Cysteine protease ATG4B): 21.1 µM (inactive)
IC50 (Phospholipase A2): 13.1 µM (active)
